Test results taken from ChEMBL document CHEMBL1921782, “Crystal structure-based virtual screening for fragment-like ligands of the human histamine H(1) receptor” (J Med Chem, 2011).

Key:
Histamine H1 receptor = Histamine H1 receptor (Homo sapiens, UniProt P35367); experiment: biochemical; type: cell-based, HEK293
Histamine H3 receptor = Histamine H3 receptor (Homo sapiens, UniProt Q9Y5N1); experiment: Displacement of [3H]N-alpha-methylhistamine from human histamine H3 receptor expressed in HEK293 cells after 1 to 1.5 hrs by scintillation counting; type: cell-based
Histamine H4 receptor = Histamine H4 receptor (Homo sapiens, UniProt Q9H3N8); experiment: Displacement of [3H]histamine from human histamine H4 receptor expressed in HEK293 cells after 1 to 1.5 hrs by scintillation counting; type: cell-based

Sequence of Histamine H1 receptor (P35367 whole entry): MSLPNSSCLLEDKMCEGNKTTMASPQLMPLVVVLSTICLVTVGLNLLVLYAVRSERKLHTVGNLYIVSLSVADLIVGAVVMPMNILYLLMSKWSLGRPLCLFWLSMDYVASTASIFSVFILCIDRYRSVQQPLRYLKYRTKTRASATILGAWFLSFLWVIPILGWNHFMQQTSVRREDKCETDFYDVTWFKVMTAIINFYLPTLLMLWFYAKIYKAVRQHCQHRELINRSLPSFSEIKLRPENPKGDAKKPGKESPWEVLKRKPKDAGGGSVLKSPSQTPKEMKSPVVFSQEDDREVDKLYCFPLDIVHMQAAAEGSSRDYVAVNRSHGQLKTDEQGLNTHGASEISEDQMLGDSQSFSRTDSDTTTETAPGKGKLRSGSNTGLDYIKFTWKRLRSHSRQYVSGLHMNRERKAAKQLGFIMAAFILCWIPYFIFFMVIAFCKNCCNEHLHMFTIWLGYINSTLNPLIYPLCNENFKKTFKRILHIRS
Sequence of Histamine H3 receptor (Q9Y5N1 whole entry): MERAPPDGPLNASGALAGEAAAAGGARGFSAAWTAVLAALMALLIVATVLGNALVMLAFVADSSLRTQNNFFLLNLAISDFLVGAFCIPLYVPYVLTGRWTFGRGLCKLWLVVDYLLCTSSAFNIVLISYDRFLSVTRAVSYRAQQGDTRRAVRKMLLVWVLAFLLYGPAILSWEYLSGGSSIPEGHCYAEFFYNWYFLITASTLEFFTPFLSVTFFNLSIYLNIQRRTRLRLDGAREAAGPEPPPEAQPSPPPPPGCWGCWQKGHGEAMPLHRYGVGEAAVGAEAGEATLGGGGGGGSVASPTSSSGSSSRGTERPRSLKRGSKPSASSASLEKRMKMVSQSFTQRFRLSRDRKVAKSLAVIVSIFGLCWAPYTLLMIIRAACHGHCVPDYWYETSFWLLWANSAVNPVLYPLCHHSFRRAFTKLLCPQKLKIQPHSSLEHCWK

Row | Ki (Histamine H1 receptor; read-out: pKi (converted)) [nM] | SMILES | further results
1 | 4170 | c1ccc2c(c1)n(CCN1CCCCC1)c1ncnn21 | 
2 | 427 | NC1=NC(c2ccccc2)n2c(nc3ccccc32)N1 (stereo not given) | 
3 | 708 | OCCN1CCN(c2ncnc3sccc23)CC1 | 
4 | 2290 | CNCC(O)CN1c2ccccc2C2CCCCC21 (stereo not given) | 
5 | 794 | CNCCCOc1cccc2ccccc12 | 
6 | 3240 | c1ccc2c(N3CCN(C4CCCC4)CC3)ncnc2c1 | Ki (Histamine H3 receptor): 100 nM
7 | 10700 | C=CCn1c(=N)n(CC(=O)c2ccccc2)c2ccccc21 | 
8 | 2630 | c1ccc2c(c1)nc1n(CCN3CCCCC3)cnn21 | Ki (Histamine H3 receptor): 600 nM
9 |  | c1ccc(Cc2ccccc2OC2CCNCC2)cc1 | Ki (Histamine H1 receptor; read-out: Ki): 6 nM
10 | 1780 | c1cnc2c(c1)cc([C@@H]1CCCO1)n2CCN1CCCCC1 | 
11 | 1910 | C1CCN(c2nc(N3CCCC3)nc(N3CCNCC3)n2)C1 | 
12 | 6310 | OC(CNC1CC1)Cn1c2ccccc2c2ccccc21 (stereo not given) | Ki (Histamine H4 receptor): 2400 nM
13 |  | CN1CCN(c2nc(N3CCCC3)c3cnn(C)c3n2)CC1 | Ki (Histamine H1 receptor; read-out: Ki): 62 nM; Ki (Histamine H4 receptor): 2900 nM
14 | 4570 | CC(C)NCc1ccc(-c2ccccc2)o1 | 
15 | 708 | CN(C)CCSc1nc2ccccc2c2nnnn12 | 

Row | SMILES | Ki (Histamine H1 receptor; read-out: pKi (converted)) [nM] | further results
16 | NCCc1ccccc1Oc1ccccc1 | 11000 | 
